Results taken from PMC8041318, “Folic Acid–Peptide Conjugates Combine Selective Cancer Cell Internalization with Thymidylate Synthase Dimer Interface Targeting” (Journal of Medicinal Chemistry, 2021).

Columns and labels:
IGROV-1 cells = test: Cell growth inhibition, crystal violet dye assay; type: cell-based, human
Excerpt: (§1) SQ was defined as the net growth inhibitory effect of the analogue combination divided by the sum of the net individual analogue effects on growth inhibition. A quotient of >1.1 indicates a synergistic effect, that between 0.9 and 1.1 indicates an additive effect, while a quotient of <0.9 indicates an antagonistic effect.

A2780 cells = test: Cell growth inhibition, crystal violet dye assay (combination study); type: cell-based, human
Excerpt: as §1

RFC = details: physiological conditions; read-out: Km toward RFC; cited from earlier work
[1] = tested on: R1-11-FR2 and R5-FR12 HeLa cells; parameters: method as in PMID 19074442; details: tritiated FA; cited from earlier work
in vitro = details: human, cytosol
Description: Given the relevance of the concentration data, we checked whether the 30 min incubation time could represent a drawback in our analytical approach.
C13* human ovarian cancer cell lines (highly cisplatin-resistant) were prepared as reported for IGROV1 (LC-MS compartmentalization experiment).[65] […] After each interval, the cells (about 2 million per Petri plate) were washed three times with acid phosphate-buffered saline (PBS, pH 5.0), scraped, and counted. […] Each cytosol aliquot was diluted to a final volume of 500 μL with a 1:1 mixture of H2O with 0.1% HCOOH and ACN with 1 μM 1,4-dithiothreitol (DTT) as an antioxidant agent.
Sample analysis was carried out on an UltiMate 3000 UHPLC (Thermo Fisher Scientific) coupled to an Orbitrap Q-Exactive mass spectrometer. We used an Agilent Poroshell C18 column (120 Å, 100 × 2.1 mm^2, 2.7 μm ps) to separate the analytes, thermostated at 30 °C, with an injection volume of 20 μL per sample. […] C13* cells were assumed to have a spherical volume of 2 pL, whose 60% represented by cytoplasm. Thus, interpolated values were multiplied by the final dilution value (500 μL) and divided by the number of cells for each sample multiplied by a single-cell cytosol volume (1.2 pL).

DHFR = details: IGROV-1, 5 μM, 48 h
HSP90AA1 = details: IGROV-1, 5 μM, 48 h

In the case of `O=c1[nH]cc(F)c(=O)[nH]1` [5-FU, 5-fluorouracil], the “% Growth inhibition, single compound” value (IGROV-1 cells; 5FU 10µM) is reported as 28.4%, the “% Growth inhibition, single compound” value (IGROV-1 cells; 5FU 15µM) is reported as 36.5% and the “% Growth inhibition, single compound” value (A2780 cells; 5FU 10µM) is reported as 45.3%. The “% Growth inhibition, single compound” value (A2780 cells; 5FU 15µM) was 34.5% and the “hTS protein levels (in words)” value (hTS; IGROV-1, Figures SI-10 and SI-11) was “slightly increased”.
For `Nc1nc2ncc(CNc3ccc(C(=O)N[C@@H](CCC(=O)O)C(=O)O)cc3)nc2c(=O)[nH]1` [FA, folic acid], the Km (RFC) is given as greater than 100 µM and the “ratio of concentrations between vesicular and cytosolic fractions” value [1] is given as 10.8.
Molecule `CC(C)C[C@H](NC(=O)CC[C@H](NC(=O)c1ccc(NCc2cnc3nc(N)[nH]c(=O)c3n2)cc1)C(=O)O)C(=O)N[C@@H](CO)C(=O)N[C@@H](CS)C(=O)N[C@@H](CCC(N)=O)C(=O)N[C@@H](CC(C)C)C(=O)N[C@@H](Cc1ccc(O)cc1)C(=O)N[C@@H](CCC(N)=O)C(=O)N[C@@H](CCCNC(=N)N)C(=O)O` [FA–LR] has a half-life (in vitro) of 3.33 h.
In the case of `CC(C)C[C@H](NC(=O)CC[C@H](NC(=O)c1ccc(NCc2cnc3nc(N)nc(O)c3n2)cc1)C(=O)O)C(=O)N[C@@H](CO)C(=O)N[C@@H](CS)C(=O)N[C@H](CCC(N)=O)C(=O)N[C@@H](CC(C)C)C(=O)N[C@@H](Cc1ccc(O)cc1)C(=O)N[C@@H](CCC(N)=O)C(=O)N[C@@H](CCCNC(=N)N)C(=O)O` [FA–[DGln^4]LR], the “DHFR protein level with respect to control (in words)” value (DHFR) is reported as “clear decrease” and the “reduction of HSP90AA1 level” value (HSP90AA1) is reported as 10%.
In the case of `Nc1nc2[nH]cc(CCc3ccc(C(=O)N[C@@H](CCC(=O)O)C(=O)O)cc3)c2c(=O)[nH]1` [PMX, pemetrexed], the “upregulation of hTS protein levels” value (hTS; IGROV-1, 5 μM, 48 h) is reported as 2.5 fold.
In the case of `[NH2][Pt]([NH2])([Cl])[Cl]` [cDDP, cisplatin], the “% Growth inhibition, single compound” value (IGROV-1 cells; cDDP 1µM) is reported as 40.3%, the “% Growth inhibition, single compound” value (IGROV-1 cells; cDDP 2µM) is reported as 44.9% and the “% Growth inhibition, single compound” value (IGROV-1 cells; cDDP 5µM) is reported as 48.8%. The “% Growth inhibition, single compound” value (A2780 cells; cDDP 1µM) was 37.3%, the “% Growth inhibition, single compound” value (A2780 cells; cDDP 2µM) was 49.1% and the “% Growth inhibition, single compound” value (A2780 cells; cDDP 5µM) was 78.6%.
With `Cc1nc2ccc(CN(C)c3ccc(C(=O)N[C@@H](CCC(=O)O)C(=O)O)s3)cc2c(=O)[nH]1` [raltitrexed] the “% Growth inhibition, single compound” value (IGROV-1 cells; RTX 10nM) was 34.5%, the “% Growth inhibition, single compound” value (IGROV-1 cells; RTX 20nM) was 29.5% and the “% Growth inhibition, single compound” value (A2780 cells; RTX 10nM) was 56.8%. For the same molecule, the “% Growth inhibition, single compound” value (A2780 cells; RTX 20nM) was 59.9%.
